Laboratory results: PubChem BioAssay (NCI)
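1) Cells in 96-well plates. 2) Compound, 48 h, 5 concentrations. 3) Linear interpolation between surrounding doses. 4) Unreached endpoint = highest concentration. GI50 is the concentration that inhibits growth by half. Definition used: TGI = concentration required for complete inhibition of growth.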

Assays:
Assay in all cases: NCI-60 cell line screen, 48 h
OVCAR-5 ovarian = tested on: OVCAR-5 ovarian
786-0 renal = tested on: 786-0 renal
A498 renal = tested on: A498 renal
A549 NSCLC = tested on: A549 NSCLC
ACHN renal = tested on: ACHN renal
BT-549 breast = tested on: BT-549 breast
CAKI-1 renal = tested on: CAKI-1 renal
DU-145 prostate = tested on: DU-145 prostate
EKVX NSCLC = tested on: EKVX NSCLC
HCT-116 colon = tested on: HCT-116 colon
HCT-15 colon = tested on: HCT-15 colon
HL-60(TB) leukemia = tested on: HL-60(TB) leukemia
HOP-62 NSCLC = tested on: HOP-62 NSCLC
HOP-92 NSCLC = tested on: HOP-92 NSCLC
HS 578T breast = tested on: HS 578T breast
IGROV1 ovarian = tested on: IGROV1 ovarian
M14 melanoma = tested on: M14 melanoma
MDA-MB-231 breast = tested on: MDA-MB-231 breast
MDA-MB-435 = tested on: MDA-MB-435
NCI-H226 lung = tested on: NCI-H226 lung
NCI-H23 lung = tested on: NCI-H23 lung
NCI-H460 lung = tested on: NCI-H460 lung
NCI/ADR-RES ovarian = tested on: NCI/ADR-RES ovarian
OVCAR-3 ovarian = tested on: OVCAR-3 ovarian
OVCAR-4 ovarian = tested on: OVCAR-4 ovarian
PC-3 prostate = tested on: PC-3 prostate
RPMI-8226 leukemia = tested on: RPMI-8226 leukemia
RXF 393 renal = tested on: RXF 393 renal
SF-295 CNS = tested on: SF-295 CNS
SF-539 CNS = tested on: SF-539 CNS
SK-MEL-5 melanoma = tested on: SK-MEL-5 melanoma
SK-OV-3 ovarian = tested on: SK-OV-3 ovarian
SN12C renal = tested on: SN12C renal
SNB-75 CNS = tested on: SNB-75 CNS
SW-620 colon = tested on: SW-620 colon
TK-10 renal = tested on: TK-10 renal
UACC-257 melanoma = tested on: UACC-257 melanoma
UACC-62 melanoma = tested on: UACC-62 melanoma
UO-31 renal = tested on: UO-31 renal
COLO 205 colon = tested on: COLO 205 colon
HCC-2998 colon = tested on: HCC-2998 colon
HT29 colon = tested on: HT29 colon
LOX IMVI melanoma = tested on: LOX IMVI melanoma
MALME-3M melanoma = tested on: MALME-3M melanoma
MCF7 breast = tested on: MCF7 breast
NCI-H522 lung = tested on: NCI-H522 lung
OVCAR-8 ovarian = tested on: OVCAR-8 ovarian
SF-268 CNS = tested on: SF-268 CNS
SK-MEL-2 melanoma = tested on: SK-MEL-2 melanoma
SK-MEL-28 melanoma = tested on: SK-MEL-28 melanoma
SNB-19 CNS = tested on: SNB-19 CNS
T-47D breast = tested on: T-47D breast
U251 CNS = tested on: U251 CNS

C#CC[C@@H]1C[C@]2(C)[C@H]3CC[C@@H]4[C@H]5C(C(=C)C)CC[C@]5(C(=O)NCCCN5CCN(CCCN)CC5)CC[C@@]4(C)[C@]3(C)CC[C@H]2C(C)(C)[C@H]1OC(C)=O (stereo partly specified)
GI50 (OVCAR-5 ovarian): 1.58 µM | TGI (OVCAR-5 ovarian): 2.95 µM

OC(CNc1ccnc2cc(Cl)ccc12)CNc1ccnc2cc(Cl)ccc12
GI50 (786-0 renal): 1.81 µM | TGI (786-0 renal): 3.39 µM | GI50 (A498 renal): 11 µM | TGI (A498 renal): 25.3 µM | GI50 (A549 NSCLC): 4.49 µM | TGI (A549 NSCLC): 21.2 µM | GI50 (ACHN renal): 5.09 µM | TGI (ACHN renal): 28.2 µM | GI50 (BT-549 breast): 1.67 µM | TGI (BT-549 breast): 3.13 µM | GI50 (CAKI-1 renal): 31.1 µM | TGI (CAKI-1 renal): > 100 µM | GI50 (DU-145 prostate): 1.96 µM | TGI (DU-145 prostate): 3.76 µM | GI50 (EKVX NSCLC): 2.22 µM | TGI (EKVX NSCLC): 6.04 µM | GI50 (HCT-116 colon): 1.72 µM | TGI (HCT-116 colon): 3.09 µM | GI50 (HCT-15 colon): 17.2 µM | TGI (HCT-15 colon): 44.6 µM | GI50 (HL-60(TB) leukemia): 1.82 µM | TGI (HL-60(TB) leukemia): 3.79 µM | GI50 (HOP-62 NSCLC): 3.17 µM | TGI (HOP-62 NSCLC): 14.7 µM | GI50 (HOP-92 NSCLC): 4.22 µM | TGI (HOP-92 NSCLC): 19.1 µM | GI50 (HS 578T breast): 1.97 µM | TGI (HS 578T breast): 4.16 µM | GI50 (IGROV1 ovarian): 10.9 µM | TGI (IGROV1 ovarian): 36.8 µM | GI50 (M14 melanoma): 1.73 µM | TGI (M14 melanoma): 3.18 µM | GI50 (MDA-MB-231 breast): 1.73 µM | TGI (MDA-MB-231 breast): 3.44 µM | GI50 (MDA-MB-435): 1.67 µM | TGI (MDA-MB-435): 3.1 µM | GI50 (NCI-H226 lung): 2.98 µM | TGI (NCI-H226 lung): 9.3 µM | GI50 (NCI-H23 lung): 2.79 µM | TGI (NCI-H23 lung): 7.77 µM | GI50 (NCI-H460 lung): 1.83 µM | TGI (NCI-H460 lung): 3.52 µM | GI50 (NCI/ADR-RES ovarian): > 100 µM | TGI (NCI/ADR-RES ovarian): > 100 µM | GI50 (OVCAR-3 ovarian): 1.81 µM | TGI (OVCAR-3 ovarian): 3.42 µM | GI50 (OVCAR-4 ovarian): 1.64 µM | TGI (OVCAR-4 ovarian): 3.34 µM | GI50 (OVCAR-5 ovarian): 1.73 µM | TGI (OVCAR-5 ovarian): 3.42 µM | GI50 (PC-3 prostate): 1.6 µM | TGI (PC-3 prostate): 3.1 µM | GI50 (RPMI-8226 leukemia): 3 µM | TGI (RPMI-8226 leukemia): 11.1 µM | GI50 (RXF 393 renal): 1.7 µM | TGI (RXF 393 renal): 3.19 µM | GI50 (SF-295 CNS): 1.82 µM | TGI (SF-295 CNS): 3.56 µM | GI50 (SF-539 CNS): 1.74 µM | TGI (SF-539 CNS): 3.3 µM | GI50 (SK-MEL-5 melanoma): 1.58 µM | TGI (SK-MEL-5 melanoma): 3.02 µM | GI50 (SK-OV-3 ovarian): 1.92 µM | TGI (SK-OV-3 ovarian): 3.89 µM | GI50 (SN12C renal): 1.89 µM | TGI (SN12C renal): 3.7 µM | GI50 (SNB-75 CNS): 1.5 µM | TGI (SNB-75 CNS): 3.03 µM | GI50 (SW-620 colon): 1.66 µM | TGI (SW-620 colon): 3.21 µM | GI50 (TK-10 renal): 2.13 µM | TGI (TK-10 renal): 4.86 µM | GI50 (UACC-257 melanoma): 1.87 µM | TGI (UACC-257 melanoma): 3.49 µM | GI50 (UACC-62 melanoma): 1.7 µM | TGI (UACC-62 melanoma): 3.37 µM | GI50 (UO-31 renal): 17 µM | TGI (UO-31 renal): 38 µM

Cc1ccc2c(c1)SC1=Nc3sc4cc(C)ccc4[n+]3CN12
TGI (786-0 renal): > 100 µM | TGI (A498 renal): 87.1 µM | TGI (A549 NSCLC): 67.1 µM | TGI (ACHN renal): > 100 µM | TGI (BT-549 breast): 18.3 µM | TGI (COLO 205 colon): 13.1 µM | TGI (DU-145 prostate): > 100 µM | TGI (EKVX NSCLC): 45.4 µM | TGI (HCC-2998 colon): 6.62 µM | TGI (HCT-116 colon): 35 µM | TGI (HCT-15 colon): > 100 µM | TGI (HL-60(TB) leukemia): 9.77 µM | TGI (HOP-62 NSCLC): 54.6 µM | TGI (HOP-92 NSCLC): 68 µM | TGI (HS 578T breast): 35.5 µM | TGI (HT29 colon): 28.4 µM | TGI (IGROV1 ovarian): 34 µM | TGI (LOX IMVI melanoma): > 100 µM | TGI (M14 melanoma): 19.1 µM | TGI (MALME-3M melanoma): 4.63 µM | TGI (MCF7 breast): > 100 µM | TGI (MDA-MB-231 breast): 92.8 µM | TGI (MDA-MB-435): 20.2 µM | TGI (NCI-H226 lung): 75.2 µM | TGI (NCI-H23 lung): 13.6 µM | TGI (NCI-H460 lung): > 100 µM | TGI (NCI-H522 lung): 11.2 µM | TGI (NCI/ADR-RES ovarian): > 100 µM | TGI (OVCAR-3 ovarian): 6.97 µM | TGI (OVCAR-4 ovarian): 29.6 µM | TGI (OVCAR-5 ovarian): > 100 µM | TGI (OVCAR-8 ovarian): 18.8 µM | TGI (PC-3 prostate): > 100 µM | TGI (RPMI-8226 leukemia): 6.17 µM | TGI (RXF 393 renal): > 100 µM | TGI (SF-268 CNS): > 100 µM | TGI (SF-539 CNS): 25.4 µM | TGI (SK-MEL-2 melanoma): 17.8 µM | TGI (SK-MEL-28 melanoma): 29.2 µM | TGI (SK-MEL-5 melanoma): 3.28 µM | TGI (SK-OV-3 ovarian): > 100 µM | TGI (SN12C renal): 56.2 µM | TGI (SNB-19 CNS): 16.9 µM | TGI (SNB-75 CNS): 64.5 µM | TGI (SW-620 colon): 53.1 µM | TGI (T-47D breast): 8.75 µM | TGI (TK-10 renal): 48 µM | TGI (U251 CNS): 19 µM | TGI (UACC-257 melanoma): 12.8 µM | TGI (UACC-62 melanoma): 16.6 µM | TGI (UO-31 renal): > 100 µM
